This note sets out measurements from PubChem BioAssay (NCI).

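These data come from cells grown in 96-well plates and exposed to compound for 48 hours at five concentrations. TGI is the concentration that stops growth completely.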 Some results are limits rather than exact numbers.

The TGI is the concentration at which net growth stops.

Common to all, as to assay: DTP human tumour cell line panel, 48 h
In test [1] the test system is ACHN renal.
Test [2] has as its system CAKI-1 renal.
In test [3] the test system is HCT-116 colon.
The test system of test [4] is HL-60(TB) leukemia.
Test [5] relates to HT29 colon.
Test [6] concerns K-562 leukemia.
The test system of test [7] is M14 melanoma.
Test [8] concerns M19-MEL melanoma.
For test [9], the system named is MALME-3M melanoma.
For test [10], the system named is OVCAR-5 ovarian.
The test system of test [11] is OVCAR-8 ovarian.
The test system of test [12] is RPMI-8226 leukemia.
Test [13] concerns SR leukemia.
Test [14] relates to SW-620 colon.
Test [15] has as its system BT-549 breast.
For test [16], the system named is HS 578T breast.
The subject of test [17] is MDA-MB-231 breast.
In test [18] the test system is MDA-MB-435.
Test [19] deals with NCI/ADR-RES ovarian.
The subject of test [20] is PC-3 prostate.

With `COc1ccc(/C=C2\SC(c3ccc(OC)cc3)N(NC(=O)Cc3ccccc3)C2=O)cc1` (stereo not drawn), the concentration for total growth inhibition (TGI) in test [1], in test [2], in test [3], in test [4], in [5] and in test [6] was over 100 µM throughout. Further, the TGI in [7], in test [8], in test [9], in test [10], in [11] and in [12] was over 100 µM throughout. The TGI in test [13] and in [14] was over 100 µM each time.

`COc1cc([C@@H]2c3cc4c(cc3[C@@H](NCc3ccccc3)C3COC(=O)[C@@H]32)OCO4)cc(OC)c1O` (stereo partly drawn): the TGI in [1] is 5.92 µM; in [2], 14.5 µM; in test [3] it was over 100 µM; in [4] it was 10.1 µM; in test [5] it was 60.1 µM; in test [6], over 79.1 µM. In addition, the concentration for total growth inhibition (TGI) was 36.6 µM in [7]; over 100 µM in [8]; 32.7 µM in test [9]; over 66.6 µM in [10]; 51.7 µM in test [11]; 21.2 µM in test [12]. For the same compound, the TGI is 4.84 µM in test [13] and 57.5 µM in [14].

With `Cc1ccc2c(c1)SC(c1cc3c(cc1Br)OCO3)S2` (stereo not drawn), the TGI in [1] is over 31.6 µM; in test [2], over 100 µM; in [3], over 31.6 µM; in test [4], over 31.6 µM; in [5], over 31.6 µM; in test [6], over 31.6 µM. Moreover, the total growth inhibition concentration (TGI) in [7], in test [8], in test [9], in [10], in test [11] and in test [12] was over 31.6 µM throughout. Also, the TGI is over 31.6 µM in test [13] and over 100 µM in test [14].

As to `Cc1nc2ccccc2c(=O)n1NC(=S)Nc1cccc(Cl)c1`, the TGI in [1], in test [2], in test [3], in [4], in [5] and in [6] was over 100 µM throughout. Besides, the TGI in test [7], in test [8], in [9], in test [10], in test [11] and in [12] was over 100 µM throughout. Further, the TGI in [13] and in [14] was over 100 µM throughout.

For `CC[N+]1(C)CCC(O)(c2ccccc2)C(C(=O)c2ccccc2)C1` (stereo not drawn), the TGI was determined as 23 µM in [1]; 27.7 µM in test [15]; 7.51 µM in [2]; 34.7 µM in [3]; 15.9 µM in test [4]; 74 µM in test [16]. The TGI in test [5] came to 31.8 µM; in test [6] it was 13.2 µM; in test [7], 24.1 µM; in test [8], 36 µM; in test [9] it was 32.6 µM; in [17], 42.7 µM. Besides, the TGI in [18] was found to be 34.2 µM; in [19], 83.6 µM; in test [10], 35.5 µM; in test [11] it was 59.1 µM; in [20], 33.9 µM; in [12] it was 6.37 µM. Moreover, the TGI in test [13] came to 15.6 µM; in test [14], 4.58 µM.

With `Cc1ccc(C2(O)CC(c3ccc([N+](=O)[O-])o3)=NN2C(=O)COc2ccccc2Cl)cc1` (stereo not drawn), the TGI in test [1] was 63.2 µM; in test [2], over 100 µM; in test [3], over 87.4 µM; in [4] it was 12.9 µM; in test [5], over 42 µM; in test [6], over 100 µM. Further, the TGI is 15.4 µM in test [7]; 33.5 µM in test [8]; 40.3 µM in test [9]; over 91.8 µM in test [10]; over 100 µM in test [11]; over 31.9 µM in test [12]. Besides, the TGI in [13] turned out to be 23.1 µM; in [14], 72.3 µM.

For `CCCc1c(C(=O)OCC)[nH]c(-c2ccc(-c3[nH]c(C(=O)OCC)c(CCC)c3C(=O)OCC)o2)c1C(=O)OCC`, the total growth inhibition concentration (TGI) in test [1], in test [2], in [3], in test [4], in test [5] and in [6] was over 100 µM throughout. For the same compound, the TGI in [7], in test [8], in test [9], in test [10], in test [11] and in test [12] was over 100 µM throughout. The concentration for total growth inhibition (TGI) in [13] and in [14] was over 100 µM each time.

Consider `COC(=O)c1c2c(c(-c3ccccc3)c3c1-c1nc(Cl)ccc1CC3)CCc1ccc(Cl)nc1-2`, for which the TGI in test [1], in test [2], in test [3], in test [4], in [5] and in test [6] was over 100 µM throughout. Further, the concentration for total growth inhibition (TGI) in test [7], in [8], in test [9], in test [10], in test [11] and in test [12] was over 100 µM in each case. Moreover, the TGI in test [13] and in test [14] was over 100 µM in each case.
